One may read the GI50 as the concentration at which growth is held to half of that of the control.

These results are taken from ChEMBL document CHEMBL1201862, “PubChem BioAssay data set” (2004).

Test systems include MOLT-4; COLO 205; SF-539; SW-620; SN12C; K562; 786-0; SK-OV-3; MDA-MB-435; LOX IMVI; NCI-H23; PC-3; HCC 2998; MCF7; Hs-578T; IGROV-1; RXF 393; M14; BT-549; HOP-92.
Experiment in all cases: DTP human tumour cell line panel, 48 h

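Five concentrations, 48 hours, 96-well plates. At the GI50, growth is halved.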 The source made the active and inactive calls. No stated cut-off is given here; in the data, active = GI50 up to about 1.1 µM and inactive = higher. A value given as a limit tells only on which side of the number the result lay.

For `Cc1cc2c(nn1)CCc1c-2no[n+]1[O-]`, the GI50 in the assay with MOLT-4, in the assay with COLO 205, with SF-539, in the assay on SW-620, in the assay with SN12C and in the assay on K562 was > 100 µM (inactive) throughout. Also, the GI50 in the assay on 786-0, in the assay on SK-OV-3, in the assay on MDA-MB-435, in the assay with LOX IMVI, with NCI-H23 and in the assay on PC-3 was > 100 µM (inactive) throughout. The GI50 is > 100 µM (inactive) in the assay on HCC 2998; > 100 µM (inactive) with MCF7; > 100 µM (inactive) in the assay with Hs-578T; > 100 µM (inactive) with IGROV-1; 22.1 µM (inactive) with RXF 393; > 100 µM (inactive) with M14. In the assay with BT-549, the GI50 is > 100 µM (inactive).
Regarding `O=C(O)c1cccc(S(=O)(=O)NCCO)c1`, the GI50 with MOLT-4, with COLO 205, in the assay with SF-539, in the assay on SW-620, in the assay on SN12C and in the assay on K562 was > 100 µM (inactive) in each case. Also, the GI50 with 786-0, in the assay on SK-OV-3, with MDA-MB-435, with LOX IMVI, in the assay on NCI-H23 and in the assay with PC-3 was > 100 µM (inactive) each time. Moreover, the GI50 in the assay with HOP-92, in the assay with MCF7, with Hs-578T, with IGROV-1, in the assay on RXF 393 and with M14 was > 100 µM (inactive) each time. For the same compound, the GI50 in the assay on BT-549 is > 100 µM (inactive).
For `COc1cccc2c1CCc1c(-c3ccc(F)cc3)cc(-c3ccc4ccccc4n3)nc1-2`, the GI50 with MOLT-4, in the assay with COLO 205, in the assay with SF-539, in the assay on SW-620, in the assay on K562 and with 786-0 was > 100 µM (inactive) each time. The GI50 in the assay on SK-OV-3, in the assay with MDA-MB-435, in the assay on LOX IMVI, in the assay with NCI-H23, in the assay on PC-3 and with HOP-92 was > 100 µM (inactive) in each case. For the same compound, the GI50 in the assay on MCF7, in the assay on Hs-578T, in the assay with IGROV-1, in the assay with RXF 393, in the assay with M14 and with BT-549 was > 100 µM (inactive) in each case.
Take `C/C(=N\NC(=S)Nc1ccc(Cl)cc1)c1nc2cccnc2[nH]1`: the GI50 was 0.687 µM (active) in the assay with MOLT-4; 4.07 µM (inactive) with COLO 205; 0.938 µM (active) in the assay with SF-539; 4.93 µM (inactive) with SW-620; 2.81 µM (inactive) with SN12C; 3.33 µM (inactive) with K562. Besides, the GI50 in the assay with 786-0 was 2.17 µM (inactive); in the assay with SK-OV-3, 4.31 µM (inactive); in the assay with MDA-MB-435 it was 3.44 µM (inactive); in the assay with LOX IMVI, 1.23 µM (inactive); with NCI-H23, 1.89 µM (inactive); with PC-3, 1.39 µM (inactive). Further, the GI50 with HOP-92 was 1.27 µM (inactive); with HCC 2998, 1.3 µM (inactive); in the assay on MCF7, 2.69 µM (inactive); in the assay on Hs-578T, 15.1 µM (inactive); with IGROV-1 it was 3.08 µM (inactive); with M14, 1.48 µM (inactive). Also, the GI50 with BT-549 was 1.76 µM (inactive).
For the compound `O=C(CN1CCCCC1)c1ccc2[nH]c(=O)oc2c1`, the GI50 with MOLT-4, with COLO 205, with SF-539, with SW-620, in the assay with SN12C and in the assay on K562 was > 100 µM (inactive) each time. In addition, the GI50 in the assay on 786-0, with SK-OV-3, in the assay with MDA-MB-435, in the assay on LOX IMVI, in the assay on NCI-H23 and in the assay with PC-3 was > 100 µM (inactive) throughout. Also, the GI50 in the assay with MCF7, in the assay on Hs-578T, with IGROV-1, with RXF 393, in the assay on M14 and with BT-549 was > 100 µM (inactive) in each case.
As for `O=C(CCCNc1nc(-c2ccccc2)cs1)c1cccs1`, the GI50 in the assay with MOLT-4, in the assay on COLO 205, in the assay on SF-539, with SW-620, in the assay on SN12C and in the assay on K562 was > 100 µM (inactive) in each case. Moreover, the GI50 in the assay with 786-0, in the assay on SK-OV-3, in the assay with MDA-MB-435, with LOX IMVI, with NCI-H23 and in the assay on PC-3 was > 100 µM (inactive) in each case. Besides, the GI50 with HCC 2998, with MCF7, with Hs-578T, with IGROV-1, in the assay with M14 and in the assay on BT-549 was > 100 µM (inactive) each time.
In the case of `Clc1ccc(Cc2nc3cc(CCN4CCN(c5ccccc5)CC4)ccc3[nH]2)cc1`, the GI50 in the assay on MOLT-4 was 6.62 µM (inactive); with COLO 205 it was 4.06 µM (inactive); with SF-539, 17.3 µM (inactive); with SW-620, > 100 µM (inactive); in the assay on SN12C, 16 µM (inactive); with K562 it was 5.93 µM (inactive). For the same compound, the GI50 in the assay with 786-0 was 6.87 µM (inactive); with SK-OV-3, 17.9 µM (inactive); in the assay with MDA-MB-435, 12.9 µM (inactive); with LOX IMVI, 12.6 µM (inactive); with NCI-H23, 13.8 µM (inactive); with PC-3 it was 18.6 µM (inactive). The GI50 in the assay on HOP-92 is 21 µM (inactive); in the assay on MCF7 it was 16 µM (inactive); with Hs-578T it was 20.3 µM (inactive); with IGROV-1 it was 27.5 µM (inactive); in the assay with RXF 393, 5.24 µM (inactive); with M14, 5.73 µM (inactive). Further, the GI50 with BT-549 was 16.4 µM (inactive).
Turning to `CC1(C)[C@@H]2C[C@H]1C(Cc1ccc(C[C@H]3c4cc(-c5ccccn5)ncc4[C@H]4C[C@@H]3C4(C)C)cc1)c1cc(-c3ccccn3)ncc12` (some centres undefined), the GI50 with MOLT-4 was 0.431 µM (active); in the assay on COLO 205 it was 1.41 µM (inactive); with SF-539 it was 1.22 µM (inactive); in the assay with SW-620 it was 3.46 µM (inactive); in the assay on SN12C, 0.902 µM (active); in the assay with K562, 0.649 µM (active). In addition, the GI50 in the assay on 786-0 was 1.41 µM (inactive); in the assay with SK-OV-3, 7.83 µM (inactive); in the assay with MDA-MB-435, 1.13 µM (inactive); in the assay on LOX IMVI, 0.843 µM (active); with NCI-H23, 2.68 µM (inactive); with PC-3, 0.587 µM (active). Also, the GI50 with HCC 2998 is 1.74 µM (inactive); in the assay on MCF7, 1.89 µM (inactive); in the assay with Hs-578T it was > 100 µM (inactive); in the assay with IGROV-1, 1.25 µM (inactive); with RXF 393 it was 3.58 µM (inactive); in the assay on M14, 1.16 µM (inactive). Further, the GI50 with BT-549 is 3.33 µM (inactive).
